Data: PubChem BioAssay (NCI)
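Method: 48-hour compound exposure of cells in 96-well plates, five concentrations, linear interpolation of endpoints. TGI denotes the concentration required for complete inhibition of growth.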

Experiments:
Assay in all cases: growth of human tumour cells (NCI), 48 h
[1] = system: NCI-H226 lung
[2] = system: UACC-257 melanoma
[3] = system: OVCAR-5 ovarian
[4] = system: HOP-92 NSCLC
[5] = system: K-562 leukemia
[6] = system: SF-268 CNS
[7] = system: SF-539 CNS
[8] = system: EKVX NSCLC
[9] = system: SK-MEL-28 melanoma
[10] = system: HCT-116 colon
[11] = system: OVCAR-3 ovarian
[12] = system: XF 498 CNS
[13] = system: TK-10 renal
[14] = system: NCI-H23 lung
[15] = system: MALME-3M melanoma
[16] = system: NCI-H522 lung
[17] = system: NCI-H460 lung
[18] = system: HT29 colon
[19] = system: UACC-62 melanoma
[20] = system: A498 renal
[21] = system: SK-MEL-2 melanoma
[22] = system: HL-60(TB) leukemia
[23] = system: CCRF-CEM leukemia
[24] = system: SF-295 CNS
[25] = system: A549 NSCLC
[26] = system: HOP-62 NSCLC
[27] = system: HOP-18 NSCLC
[28] = system: ACHN renal
[29] = system: 786-0 renal
[30] = system: LXFL 529 NSCLC
[31] = system: SK-MEL-5 melanoma
[32] = system: RPMI-8226 leukemia
[33] = system: OVCAR-4 ovarian
[34] = system: HCT-15 colon
[35] = system: OVCAR-8 ovarian
[36] = system: SK-OV-3 ovarian
[37] = system: DLD-1 colon
[38] = system: DMS 114 small cell lung
[39] = system: COLO 205 colon
[40] = system: SNB-78 CNS
[41] = system: DMS 273 small cell lung
[42] = system: SNB-75 CNS
[43] = system: U251 CNS
[44] = system: KM20L2 colon
[45] = system: M19-MEL melanoma
[46] = system: SN12C renal
[47] = system: KM12 colon
[48] = system: CAKI-1 renal
[49] = system: MOLT-4 leukemia
[50] = system: SNB-19 CNS
[51] = system: UO-31 renal
[52] = system: IGROV1 ovarian
[53] = system: SW-620 colon
[54] = system: M14 melanoma
[55] = system: HCC-2998 colon
[56] = system: LOX IMVI melanoma

## C=C1CCC2[C@@H](CCC3[C@]2(C)CCC[C@]3(C)C(=O)OC)C1CCO (some centres not stated)
[1]
  TGI: 32.1 µM
[2]
  TGI: 18.6 µM
[3]
  TGI: 33.2 µM
[4]
  TGI: 20.1 µM
[5]
  TGI: 26.1 µM
[6]
  TGI: 29.1 µM
[7]
  TGI: 26.3 µM
[8]
  TGI: 37.9 µM
[9]
  TGI: 28.1 µM
[10]
  TGI: 19.2 µM
[11]
  TGI: 26 µM
[12]
  TGI: 22.6 µM
[13]
  TGI: 34.1 µM
[14]
  TGI: 23.2 µM
[15]
  TGI: 35.8 µM
[16]
  TGI: 21.6 µM
[17]
  TGI: 37.2 µM
[18]
  TGI: 17.8 µM
[19]
  TGI: 27.5 µM
[20]
  TGI: 30.6 µM
[21]
  TGI: 36.6 µM
[22]
  TGI: 9.36 µM
[23]
  TGI: 33.1 µM
[24]
  TGI: 30.9 µM
[25]
  TGI: 32.5 µM
[26]
  TGI: 41.7 µM
[27]
  TGI: 29.9 µM
[28]
  TGI: 29.4 µM
[29]
  TGI: 49.2 µM
[30]
  TGI: 21 µM
[31]
  TGI: 17.5 µM
[32]
  TGI: 17 µM
[33]
  TGI: 26.6 µM
[34]
  TGI: 27.3 µM
[35]
  TGI: 37.7 µM
[36]
  TGI: 45.3 µM
[37]
  TGI: 46.8 µM
[38]
  TGI: 20.3 µM
[39]
  TGI: 27.9 µM
[40]
  TGI: 36.3 µM
[41]
  TGI: 24.9 µM
[42]
  TGI: 19.7 µM
[43]
  TGI: 26.4 µM
[44]
  TGI: 22.8 µM
[45]
  TGI: 29.9 µM
[46]
  TGI: 27.5 µM
[47]
  TGI: 25.2 µM
[48]
  TGI: 24.9 µM
[49]
  TGI: 17.9 µM
[50]
  TGI: 28 µM
[51]
  TGI: 31.7 µM
[52]
  TGI: 29.6 µM
[53]
  TGI: 26.9 µM
[54]
  TGI: 26.5 µM

## COc1cc([C@@H]2c3cc4c(cc3[C@@H](OC(=O)c3ccccc3)C3COC(=O)[C@@H]32)OCO4)cc(OC)c1O (some centres not stated)
[55]
  TGI: > 100 µM
[3]
  TGI: > 100 µM
[5]
  TGI: > 100 µM
[6]
  TGI: > 100 µM
[9]
  TGI: > 100 µM
[13]
  TGI: > 100 µM
[14]
  TGI: 0.0642 µM
[15]
  TGI: 29.9 µM
[17]
  TGI: 20.9 µM
[22]
  TGI: 15.4 µM
[23]
  TGI: > 100 µM
[24]
  TGI: > 100 µM
[25]
  TGI: 35.6 µM
[26]
  TGI: 28.7 µM
[27]
  TGI: > 100 µM
[28]
  TGI: 18.4 µM
[29]
  TGI: 45.5 µM
[30]
  TGI: > 100 µM
[32]
  TGI: 44 µM
[33]
  TGI: > 100 µM
[35]
  TGI: > 100 µM
[36]
  TGI: > 100 µM
[38]
  TGI: 0.0229 µM
[39]
  TGI: 0.963 µM
[41]
  TGI: > 100 µM
[42]
  TGI: 36.8 µM
[45]
  TGI: 69 µM
[46]
  TGI: 26.9 µM
[48]
  TGI: 79.2 µM
[49]
  TGI: 41.4 µM
[56]
  TGI: 84.5 µM
[51]
  TGI: 33.5 µM
[53]
  TGI: > 100 µM
